The values below come from patent US20100323990A1, “SHIP 1 MODULATOR PRODRUGS” (THE UNIVERSITY OF BRITISH COLUMBIA, priority 2006, published 2010).

Assay [1] deals with SHIP−/− bone marrow derived macrophages. Description: LPS-stimulated TNFα production in SHIP−/− bone marrow derived macrophages. The format is cell-based, mice. Particulars: SHIP−/− cells, 15 μM, 10 ng/mL LPS 2 h. As to the method: Bone marrow cells were aspirated from 4 to 8 week old C57B16×129Sv mixed background mice and SHIP^+/+ and SHIP^−/− mast cells prepared as described previously. Bone marrow derived macrophages from SHIP^+/+ and SHIP^−/− mice were obtained and maintained in IMDM supplemented with 10% FCS, 150 μM MTG, 2% C127 cell conditioned medium as a source of macrophage colony stimulating factor (M-CSF) (macrophage medium)
LPS stimulation of macrophages. For the analysis of LPS-stimulated TNFα production, 2×10^5 cells were plated the night before in 24 well plates in macrophage medium. The next day, the medium was changed and AQX-016A or carrier was added to cells at the indicated concentrations for 30 min prior to the addition of 10 ng/mL LPS. Supernatants were collected for TNFα determination by ELISA (BD Biosciences, Mississauga, ON, Canada). For analysis of intracellular signaling, 2×10^6 cells were plated the night before in 6 cm tissue culture plates. […] Calcium influx was monitored by spectrofluorometry. […] Total cell lysates were then prepared and analyzed for phospho-PKB, phospho-p38^MAPK, phospho-MAPK, Grb-2 (Cell Signalling, Mississauga, Ont) and SHIP^6 by immunoblot analysis.
The target specificity and biological efficacy of AQX-016A were assessed by comparing AQX-016A's effects on PI3K-regulated processes in primary SHIP^+/+ vs SHIP^−/− macrophages and mast cells. […]

Another assay concerns SHIP C2 domain. Description: Scintillation proximity assay, C2 domain. Type of assay: binding. Conditions: C2 domain 10 nM on SPA beads. As to the method:
Compound 100 was radiolabelled with tritium by GE Healthcare (Piscataway, N.J.) to a specific activity of 42 Ci/mmole. Copper chelate (His-Tag) YSi SPA Scintillation Beads (GE ealthcare, Piscataway, N.J.) were diluted in 0.25% BSA/TBS to 1.5 mg/mL and recombinant, His6-tagged protein added at the indicated concentrations: wild-type (1 pM), ΔC2 SHIP enzyme (1 pM) or C2 domain (10 nM). Protein was allowed to bind 1 h at 23° C., and 250 μg of beads were aliquoted per well of a 96-well plate. 5 μCi of [^3H]-Compound 100 was added per well, the plate gently agitated for 30 min and the amount of bead associated radioactivity quantified by counting in a Wallac BetaPlate plate scintillation counter.
Isolated recombinant, His6-tagged C2 domain was expressed and its PI-3,4-P2 binding ability was determined using protein lipid overlay assays. Purified C2 domain was incubated with membrane strips spotted with PI-3,4-P2 and bound protein detected using an anti-His6 antibody. As shown in FIG. 11C the C2 domain bound PI-3,4-P2 and this binding was inhibited by Compound 100, consistent with both Compound 100 and PI-3,4-P2 interacting with the C2 domain at a common binding site.
A general note: SPA uses beads or plates that emit light when radiolabelled molecules are held near them.

For the molecule `Cc1cc(O)c(O)c2c1[C@]1(C)CCC3C(C)(C)CCC[C@]3(C)[C@H]1C2` (some centres unmarked) [AQX-016A], the “suppression of TNFα production” value in assay [1] is given as 15%.

In the case of `Cc1cc(O)cc2c1[C@]1(C)CCC3C(C)(C)CCC[C@]3(C)[C@H]1C2` (some centres unmarked) [Compound 100], in the assay with SHIP C2 domain, the “binding of [3H]-Compound 100 to C2 domain” value was “directly bind the C2 domain”.
